One series relates to GP2D cells. The experiment in a line: Cell proliferation assay (CellTiter-Glo), K-Ras G12D cells. The format is cell-based. The following applies: GP2D cells (K-Ras G12D); read-out: Inhibition of GP2D Cells (IC50). The procedure, abridged:
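GP2D (K-Ras G12D) cells seeded in DMEM with 2 mM glutamine and 10% FBS, then dosed next day with a dilution series (e.g., 9-point 3-fold). Viability read by CellTiter-Glo luminescence after about 5 days. IC50 from four-parameter fit.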
A general note: ATP-based viability assays read luminescence as a measure of living cells.

The target of series [1] is T1, KRAS protein (His-tagged GDP-loaded G12S 1-169) (Homo sapiens, UniProt P01116, G12S).
T1 construct: His-tagged GDP-loaded G12S 1-169
The experiment in a line: Covalent modification of KRAS protein, intact-protein LC-MS. The format is binding. The following applies: 24hrs at room temperature, KRAS protein ~2 µM. In outline: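 His-tagged GDP-loaded KRAS 1-169 (~2 µM) incubated with compound 24 h at room temperature, then quenched with formic acid. Intact-protein LC-ESI-MS on C4 column; deconvoluted peak intensities of unmodified and adducted protein give percent covalent modification.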

For another series, the system named is A549 cells. The experiment in a line: Cell proliferation assay (CellTiter-Glo), K-Ras G12S cells. The format is cell-based. The following applies: for IC50: Homo sapiens, A549, A549 cells (K-Ras G12S), read-out: Inhibition of A549 Cells (IC50); for ratio of IC50 against a G12D cell line to IC50 against a G12S cell line: K-Ras G12D cell line such as GP2D relative to K-Ras G12S cell line such as A549, greater than 1, 2, 3, 4, 5, 10, 15 or even greater, 8640 min. In outline: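 A549 cells (K-Ras G12S) in RPMI-1640 with 10% FBS, seeded in standard or ultra-low-attachment plates and dosed next day with a 10-point 3-fold series. Viability read about 6 days later by CellTiter-Glo luminescence. IC50 from four-parameter fit.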

Series [2] can be described thus: Metabolic (microsomal) stability assay. The format is in vitro ADME. The following applies: mouse and/or human liver microsomal metabolism assays, greater than 10, 20, 30, 40, 50, 60 mins or longer. On the procedure: All incubations are conducted in duplicate. […] Supernatants (40 µL) are transferred into clean 96-deep well plates.
The column temperature is maintained at 40 °C.
(Ct)/(C0) = e^−kt [formula]
For orientation: Microsomes from liver hold many membrane-bound enzymes, among them those of drug oxidation.

Another series addresses T2, K-Ras G12S (Homo sapiens, UniProt P01116, G12S).
T2 construct: made in house; host or cells: E. coli (e.g., BL21 (DE3))
The experiment in a line: HTRF assay of the K-Ras / SOS1 interaction. The following applies: IC50 (against K-Ras G12D) to IC50 (against K-Ras G12S). The format is biochemical. In outline:
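GST-K-Ras G12S with anti-GST-Eu donor and His-hSOS1 with anti-6His-XL665 acceptor in ~5 mM HEPES pH 7.4, ~150 mM NaCl, 1 mM DTT, 0.05% BSA, 0.0025% Igepal. Read after ~10 min or longer; IC50 from 665/620 nm ratio, duplicates at 10 µM down to 0.01 µM.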
Background: In TR-FRET formats the signal depends on donor and acceptor labels being close together.

The values that follow come from patent EP4389751A1, “HETEROCYCLIC COMPOUNDS AND USES THEREOF” (Kumquat Biosciences Inc., priority 2021, dated 2024).

Like-named read-outs stand apart in the source and are kept apart here.

A word on the IC50: it is the concentration that gives 50% inhibition. With `C#Cc1c(F)ccc2cc(O)cc(-c3ncc4c(N5CCOC6(CN(C(=O)n7cncn7)C6)C5)nc(OC[C@@]56CCCN5C[C@H](F)C6)nc4c3F)c12` [Compound A106, (8-(7-(8-ethynyl-7-fluoro-3-hydroxynaphthalen-1-yl)-8-fluoro-2-(((2R,7aS)-2-fluorotetrahydro-1H-pyrrolizin-7a(5H)-yl)methoxy)pyrido[4,3-d]pyrimidin-4-yl)-5-oxa-2,8-diazaspiro[3.5]nonan-2-yl)(1H-1,2,4-triazol-1-yl)methanone], the IC50 with GP2D cells is 1000 to 10000 nM; in the series with A549 cells (bin ≤ 500 nM), no more than 500 nM. In addition, the “% G12S Modification at 24 hr.” value in series [1] was “+++ (+++ indicates greater than 20% labelling)”.
A word on the half-life: it is the time in which the quantity being followed falls by half. `N#Cc1cnn(C(=O)N2C3CCC2CN(c2nc(OC[C@@]45CCCN4C[C@H](F)C5)nc4c(F)c(-c5ccc(F)c6sc(N)c(C#N)c56)c(Cl)cc24)C3)c1` [Compound A278, 1-(3-(7-(2-amino-3-cyano-7-fluorobenzo[b]thiophen-4-yl)-6-chloro-8-fluoro-2-(((2R,7aS)-2-fluorotetrahydro-1H-pyrrolizin-7a(5H)-yl)methoxy)quinazolin-4-yl)-3,8-diazabicyclo[3.2.1]octane-8-carbonyl)-1H-pyrazole-4-carbonitrile] displayed a half-life at 0.5 µM in series [2] (liver microsomes, pH 7.4) greater than 10 min. For the same molecule, the IC50 with GP2D cells was no more than 1000 nM. Moreover, the “Ratio of IC50 KRAS G12D vs. IC50 KRAS G12S” value at K-Ras G12S is reported as “A (A: indicates that the ratio of IC50 against KrasG12D vs. IC50 against KrasG12S is 1-fold or greater)”.
As for `C#Cc1c(F)ccc2cc(O)cc(-c3ncc4c(N5CCCCC6(CN(C(=O)n7cncn7)C6)C5)nc(OC[C@@]56CCCN5C[C@H](F)C6)nc4c3F)c12` [Compound A128, (6-(7-(8-ethynyl-7-fluoro-3-hydroxynaphthalen-1-yl)-8-fluoro-2-(((2R,7aS)-2-fluorotetrahydro-1H-pyrrolizin-7a(5H)-yl)methoxy)pyrido[4,3-d]pyrimidin-4-yl)-2,6-diazaspiro[3.6]decan-2-yl)(1H-1,2,4-triazol-1-yl)methanone], the IC50 in the series with GP2D cells was no more than 1000 nM; with A549 cells (bin ≤ 500 nM), no more than 500 nM. Further, the “% G12S Modification at 24 hr.” value in series [1] is given as “+++ (+++ indicates greater than 20% labelling)”. For the same molecule, in the series with A549 cells, the “ratio of IC50 against a G12D cell line to IC50 against a G12S cell line” value (“ratio of IC50 against a G12D cell line” for short) is on record as “greater than 1”.
With `N#Cc1c(N)sc2c(F)ccc(-c3c(Cl)cc4c(N5CCOC6(CN(C(=O)n7cncn7)C6)C5)nc(OC[C@@]56CCCN5C[C@H](F)C6)nc4c3F)c12` [Compound A162, 4-(4-(2-(1H-1,2,4-triazole-1-carbonyl)-5-oxa-2,8-diazaspiro[3.5]nonan-8-yl)-6-chloro-8-fluoro-2-(((2R,7aS)-2-fluorotetrahydro-1H-pyrrolizin-7a(5H)-yl)methoxy)quinazolin-7-yl)-2-amino-7-fluorobenzo[b]thiophene-3-carbonitrile], the “% G12S Modification at 24 hr.” value in series [1] is on record as “+++ (+++ indicates greater than 20% labelling)”. The “Ratio of IC50 KRAS G12D vs. IC50 KRAS G12S” value on K-Ras G12S is “A (A: indicates that the ratio of IC50 against KrasG12D vs. IC50 against KrasG12S is 1-fold or greater)”. Besides, the IC50 with A549 cells (bin ≤ 500 nM) was no more than 500 nM.
With `N#Cc1c(N)sc2c(F)ccc(-c3c(Cl)cc4c(N5CCCCC6(CN(C(=O)n7cncn7)C6)C5)nc(OC[C@@]56CCCN5C[C@H](F)C6)nc4c3F)c12` [Compound A295, 4-(4-(2-(1H-1,2,4-triazole-1-carbonyl)-2,6-diazaspiro[3.6]decan-6-yl)-6-chloro-8-fluoro-2-(((2R,7aS)-2-fluorotetrahydro-1H-pyrrolizin-7a(5H)-yl)methoxy)quinazolin-7-yl)-2-amino-7-fluorobenzo[b]thiophene-3-carbonitrile], the IC50 is no more than 1000 nM in the series with GP2D cells and no more than 500 nM in the series on A549 cells (bin ≤ 500 nM). For the same molecule, the “% G12S Modification at 24 hr.” value in series [1] was “+++ (+++ indicates greater than 20% labelling)”.
For `N#Cc1c(N)sc2c(F)ccc(-c3c(Cl)cc4c(N5CC6CCC(C5)N6C(=O)n5ncnc5Cl)nc(OC[C@@]56CCCN5C[C@H](F)C6)nc4c3F)c12` [Compound A194], the T1/2 result in series [2] (0.5 µM) is given as “greater than 10 mins”. For the same molecule, the concentration for half-maximal inhibition (IC50) in the series with GP2D cells was no more than 1000 nM. Besides, the “% G12S Modification at 24 hr.” value in series [1] is on record as “++ (++ indicates between about 1%- 20% labelling)”. For the same molecule, the “Ratio of IC50 KRAS G12D vs. IC50 KRAS G12S” value at K-Ras G12S is “A (A: indicates that the ratio of IC50 against KrasG12D vs. IC50 against KrasG12S is 1-fold or greater)”.
Take `C#Cc1c(F)ccc2cc(O)cc(-c3ncc4c(N5CCCC6(CN(C(=O)n7cncn7)C6)C5)nc(OC[C@@]56CCCN5C[C@H](F)C6)nc4c3F)c12` [Compound A133, (6-(7-(8-ethynyl-7-fluoro-3-hydroxynaphthalen-1-yl)-8-fluoro-2-(((2R,7aS)-2-fluorotetrahydro-1H-pyrrolizin-7a(5H)-yl)methoxy)pyrido[4,3-d]pyrimidin-4-yl)-2,6-diazaspiro[3.5]nonan-2-yl)(1H-1,2,4-triazol-1-yl)methanone]: the IC50 in the series on GP2D cells was 1000 to 10000 nM; in the series on A549 cells (bin ≤ 500 nM), no more than 500 nM. In addition, the “% G12S Modification at 24 hr.” value in series [1] was “+++ (+++ indicates greater than 20% labelling)”.
Consider `N#Cc1c(N)sc2c(F)ccc(-c3c(Cl)cc4c(N5CCC6CN(C(=O)n7cncn7)CC65)nc(OC[C@@]56CCCN5C[C@H](F)C6)nc4c3F)c12` (stereo partly drawn) [Compound A178, 4-(4-(5-(1H-1,2,4-triazole-1-carbonyl)hexahydropyrrolo[3,4-b]pyrrol-1(2H)-yl)-6-chloro-8-fluoro-2-(((2R,7aS)-2-fluorotetrahydro-1H-pyrrolizin-7a(5H)-yl)methoxy)quinazolm-7-yl)-2-amino-7-fluorobenzo[b]thiophene-3-carbonitrile], for which the figures for the concentration for half-maximal inhibition (IC50) with GP2D cells and in the series with A549 cells (bin ≤ 500 nM) were no more than 1000 nM and no more than 500 nM, respectively. Further, the “% G12S Modification at 24 hr.” value in series [1] is reported as “+++ (+++ indicates greater than 20% labelling)”.
Regarding `C[C@H](Oc1nc(N2CCCCC3(CN(C(=O)n4cncn4)C3)C2)c2cc(Cl)c(-c3ccc(F)c4sc(N)c(C#N)c34)c(F)c2n1)[C@@H]1CCCN1C` [Compound A219, 4-(4-(2-(1H-1,2,4-triazole-1-carbonyl)-2,6-diazaspiro[3.6]decan-6-yl)-6-chloro-8-fluoro-2-((S)-1-((S)-1-methylpyrrolidin-2-yl)ethoxy)quinazolin-7-yl)-2-amino-7-fluorobenzo[b]thiophene-3-carbonitrile], the IC50 was no more than 1000 nM with GP2D cells and no more than 500 nM in the series on A549 cells (bin ≤ 500 nM). In addition, the “% G12S Modification at 24 hr.” value in series [1] was “+++ (+++ indicates greater than 20% labelling)”. The “ratio of IC50 against a G12D cell line” value with A549 cells was “greater than 1”.
With `C#Cc1c(F)ccc2cc(O)cc(-c3ccc4c(N5CCCC6(CN(C(=O)n7cncn7)C6)C5)nc(OC[C@@]56CCCN5C[C@H](F)C6)nc4c3F)c12` [Compound A210, (6-(7-(8-ethynyl-7-fluoro-3-hydroxynaphthalen-1-yl)-8-fluoro-2-(((2R,7aS)-2-fluorotetrahydro-1H-pyrrolizin-7a(5H)-yl)methoxy)quinazolin-4-yl)-2,6-diazaspiro[3.5]nonan-2-yl)(1H-1,2,4-triazol-1-yl)methanone], the results for the IC50 in the series with GP2D cells and with A549 cells (bin ≤ 500 nM) were 1000 to 10000 nM and no more than 500 nM, respectively. Further, in series [1], the “% G12S Modification at 24 hr.” value is reported as “+++ (+++ indicates greater than 20% labelling)”. Also, the “ratio of IC50 against a G12D cell line” value in the series on A549 cells is “greater than 1”.
`C[C@H](Oc1nc(N2CCOC3(CN(C(=O)n4cncn4)C3)C2)c2cc(Cl)c(-c3ccc(F)c4sc(N)c(C#N)c34)c(F)c2n1)[C@@H]1CCCN1C` [Compound A275, 4-(4-(2-(1H-1,2,4-triazole-1-carbonyl)-5-oxa-2,8-diazaspiro[3.5]nonan-8-yl)-6-chloro-8-fluoro-2-((S)-1-((S)-1-methylpyrrolidin-2-yl)ethoxy)quinazolin-7-yl)-2-amino-7-fluorobenzo[b]thiophene-3-carbonitrile]: the IC50 is 1000 to 10000 nM in the series on GP2D cells and no more than 500 nM in the series on A549 cells (bin ≤ 500 nM). The “% G12S Modification at 24 hr.” value in series [1] is on record as “+++ (+++ indicates greater than 20% labelling)”.
As to `C#Cc1c(F)ccc2cc(O)cc(-c3ncc4c(N5CC6CCC(C5)N6C(=O)n5cnc(C#N)c5)nc(OC[C@@]56CCCN5C[C@H](F)C6)nc4c3F)c12` [Compound A255, 1-(3-(7-(8-ethynyl-7-fluoro-3-hydroxynaphthalen-1-yl)-8-fluoro-2-(((2R,7aS)-2-fluorotetrahydro-1H-pyrrolizin-7a(5H)-yl)methoxy)pyrido[4,3-d]pyrimidin-4-yl)-3,8-diazabicyclo[3.2.1]octane-8-carbonyl)-1H-imidazole-4-carbonitrile], the concentration for half-maximal inhibition (IC50) with GP2D cells is no more than 1000 nM; in the series with A549 cells (bin 500 nM to 5 µM), 500 to 5000 nM. In addition, in series [1], the “% G12S Modification at 24 hr.” value is “++ (++ indicates between about 1%- 20% labelling)”.
